Assay [1] has as its target T1, Recombinant Human 5′-Nucleotidase (CD73) (Homo sapiens, UniProt P21589).
T1 construct: CHO derived CD73 (Trp27-Lys547), with a C-terminal 6-His tag; 6-His (C); purchased R&D 5795-EN; host or cells: CHO
T1 sequence (P21589 27-547): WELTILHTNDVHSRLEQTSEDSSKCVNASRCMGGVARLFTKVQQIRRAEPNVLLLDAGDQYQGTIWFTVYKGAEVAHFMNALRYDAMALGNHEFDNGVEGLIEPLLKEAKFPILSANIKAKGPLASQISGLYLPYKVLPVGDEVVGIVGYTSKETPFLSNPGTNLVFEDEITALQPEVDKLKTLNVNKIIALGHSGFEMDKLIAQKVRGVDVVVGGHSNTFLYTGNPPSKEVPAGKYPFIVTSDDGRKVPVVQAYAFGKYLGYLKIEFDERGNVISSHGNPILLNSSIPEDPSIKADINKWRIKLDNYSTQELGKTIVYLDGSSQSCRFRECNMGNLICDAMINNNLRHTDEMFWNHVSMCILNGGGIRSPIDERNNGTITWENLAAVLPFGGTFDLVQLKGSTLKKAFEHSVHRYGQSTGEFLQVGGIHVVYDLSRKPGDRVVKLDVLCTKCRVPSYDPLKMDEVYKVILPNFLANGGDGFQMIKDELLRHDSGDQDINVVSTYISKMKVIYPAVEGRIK
The assay can be described thus: CD73 Enzyme Assay. The note with it: 0.5 nM human CD73, 30 μM AMP, PiColorLock phosphate detection, OD 635 nm; read-out: Potency (IC50). It counts as biochemical. The source says:
Soluble recombinant CD73 catalyzes the conversion of adenosine monophosphate (AMP) to adenosine and inorganic phosphate. The phosphate detection reagent, PiColorLock™ (Innova Bioscience, Cat #303-0125) is based on the change in absorbance of the dye malachite green in the presence of inorganic phosphate (Pi) and this property can be exploited to measure any enzyme that generates Pi. Recombinant Human 5′-Nucleotidase (CD73) (R&D #5795-EN, CHO derived CD73 (Trp27-Lys547), with a C-terminal 6-His tag) was used in the enzymatic assay. This assay was run in a 384-well plate format (Corning® NBS™ 384 well plates, Cat #3640). The basic assay procedure involves two steps: 1) Enzyme reaction: The CD73 enzyme (R&D #5795-EN) is incubated in the presence or absence of compounds. AMP (sigma, cat #01930) is added to start the kinase reaction. 2) Detection step: “Gold mix” is added to the assay system, then stabilizers are added. After incubation the absorbance of the solution is read at OD 635 nm. The recorded OD signal is proportional to the enzyme activity.
Briefly, 25 μl human CD73 (0.5 nM final concentration) in the enzymatic buffer solutions (20 mM Tris, 25 mM NaCl, 1 mM MgCl2, pH 7.5, 0.005% Tween-20) were mixed with various concentrations of the test compound (dissolved in 100% DMSO). These solutions were incubated for 15 min at 25° C., and subsequently 25 μl AMP (30 μM final concentration) was added to start the reaction. The final reaction mixture of enzyme-substrate-compound was incubated for 20 min at 37° C. Meanwhile, “Gold mix” was prepared shortly before use by adding 1/100 vol. of accelerator to the PiColorLock™ Gold reagent. 12 μL/well of the “Gold mix” was added to assay plate containing 50 μL enzyme reaction buffer and incubated at 25° C. for 5 min. 5 μL/well stabilizer was added to the assay plate and incubated at 25° C. for 30 min. The absorbance of the well solutions was measured at 635 nm on a Spark 10M instrument (TECAN).
The percent (%) inhibition at each concentration of a compound was calculated relative to the OD value in the Max and Min control wells contained within each assay plate. The Max control wells contained enzyme and substrate as 0% inhibition, and the Min control wells only contained substrate without enzyme as 100% inhibition. The concentrations and percent inhibition values for a test compound are plotted and the concentration of the compound required to achieve 50% inhibition (IC50) was determined with a four-parameter logistic dose response equation.

Assay [2] deals with T2, Cell surface CD73 of U87 MG human glioblastoma cells (Homo sapiens, UniProt P21589).
T2 construct: Cell surface CD73 catalyzes the conversion of adenosine monophosphate (AMP) to adenosine and inorganic phosphate; endogenous in cells; host or cells: U87 MG human glioblastoma cells
T2 sequence (P21589 27-549): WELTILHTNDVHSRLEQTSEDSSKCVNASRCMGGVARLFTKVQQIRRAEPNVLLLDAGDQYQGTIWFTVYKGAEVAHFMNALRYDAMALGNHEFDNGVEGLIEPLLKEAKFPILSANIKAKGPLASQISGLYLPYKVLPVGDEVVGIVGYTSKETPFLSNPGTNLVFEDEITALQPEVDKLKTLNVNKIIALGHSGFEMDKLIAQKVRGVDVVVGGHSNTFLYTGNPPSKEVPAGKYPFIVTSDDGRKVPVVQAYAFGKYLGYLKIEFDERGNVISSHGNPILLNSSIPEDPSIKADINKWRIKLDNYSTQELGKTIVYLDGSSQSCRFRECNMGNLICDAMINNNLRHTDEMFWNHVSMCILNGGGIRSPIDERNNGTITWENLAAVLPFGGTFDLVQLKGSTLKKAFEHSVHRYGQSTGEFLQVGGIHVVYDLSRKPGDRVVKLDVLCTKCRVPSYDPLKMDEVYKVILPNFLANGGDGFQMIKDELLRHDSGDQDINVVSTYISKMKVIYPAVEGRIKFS
The assay can be described thus: CD73 Cellular Assay. The assay is classed as cell-based. Conditions: 5000 cells per well, 30 μM AMP, PiColorLock phosphate detection in supernatant, read-out: Potency (IC50). The protocol: Cell surface CD73 catalyzes the conversion of adenosine monophosphate (AMP) to adenosine and inorganic phosphate. U87 MG human glioblastoma cells express high level of CD73. Cells are treated with compounds in a 96-well assay plate and supernatants are collected into a 384-well detection plate. The concentration of inorganic phosphate (Pi) in the supernatants is determined using the phosphate detection reagent, PiColorLock™ (Innova Bioscience, Cat #303-0125) following the manufacturer's instructions.
Briefly, on the day of the assay, U87 MG cells were harvested and resuspended in assay buffer which consisted of 20 mM HEPES, pH=7.4, 137 mM NaCl, 5.4 mM KCl, 1.3 mM CaCl2, 4.2 mM NaHCO3 and 0.1% glucose. To test the effect of compounds on cellular CD73 enzymatic activity, 500 nL/well of compounds dissolved in DMSO were added to a 96-well TC-treated microplate (Corning #3599). Next, 80 μL/well of U87 MG cells in assay buffer were added to assay plate. After 30 minutes of incubation in an atmosphere of 5% CO2 at 37° C., 20 μL/well of 150 μM AMP (Adenosine 5′-monophosphate monohydrate, Sigma, Cat #01930) in assay buffer was added to assay plate. Final assay conditions consisted of 5000 cells per well in 0.5% DMSO and 30 μM AMP substrate. After 50 minutes of incubation in an atmosphere of 5% CO2 at 37° C., 50 μL/well of supernatant was transferred to the 384-well detection plate (Corning® NBSTM 384 well plates, Cat #3640). Meanwhile “Gold mix” was prepared shortly before use by adding 1/100 volume of accelerator to the PiColorLock™ Gold reagent. 12 μL/well of the “Gold mix” was added to detection plate containing 50 μL/well of supernatant and incubated at 25° C. for 5 minutes. 5 μL/well stabilizer was added to the detection plate and incubated at 25° C. for 30 minutes. The absorbance at 635 nm was measured on a Spark 10M instrument (TECAN).
The percent (%) inhibition at each concentration of a compound was calculated relative to the OD value in the Max and Min control wells contained within each assay plate. The Max control wells contained cells and substrate as 0% inhibition, and the Min control wells only contained cells as 100% inhibition. The concentrations and percent inhibition values for a test compound are plotted and the concentration of the compound required to achieve 50% inhibition (IC50) was determined with a four-parameter logistic dose response equation.

For the compound `O=P(O)(O)CP(=O)(O)OC[C@H]1O[C@@H](c2ccc3c(NCC4CCCC4)nc(Cl)nc3c2)[C@H](O)[C@@H]1O` [Compound 5, (((((2R,3S,4R,5S)-5-(2-chloro-4-((cyclopentylmethyl)amino)quinazolin-7-yl)-3,4-dihydroxytetrahydrofuran-2-yl)methoxy)(hydroxy)phosphoryl)methyl)phosphonic acid], the IC50 is 10 to 99 nM in assay [1] and < 10 nM in assay [2].

As for `O=P(O)(O)CP(=O)(O)OC[C@H]1O[C@@H](c2ccc3c(NC4CCCCC4)nc(Cl)nc3c2)[C@H](O)[C@@H]1O` [Compound 31, (((((2R,3S,4R,5S)-5-(2-chloro-4-(cyclohexylamino)quinazolin-7-yl)-3,4-dihydroxytetrahydrofuran-2-yl)methoxy)(hydroxy)phosphoryl)methyl)phosphonic acid], the IC50 in assay [1] and in assay [2] was < 10 nM in each case.

With `O=P(O)(O)CP(=O)(O)OC[C@H]1O[C@@H](c2ccc3c(NCC4CCCO4)nc(Cl)nc3c2)[C@H](O)[C@@H]1O` (stereo partly drawn) [Compound 6, (((((2R,3S,4R,5S)-5-(2-chloro-4-(((tetrahydrofuran-2-yl)methyl)amino)quinazolin-7-yl)-3,4-dihydroxytetrahydrofuran-2-yl)methoxy)(hydroxy)phosphoryl)methyl)phosphonic acid], the IC50 was 10 to 99 nM in assay [1] and < 10 nM in assay [2].

In the case of `O=P(O)(O)CP(=O)(O)OC[C@H]1O[C@@H](c2ccc3c(NCc4ccccc4)nc(Cl)nc3c2)[C@@H](F)[C@@H]1O` [Compound 13, (((((2R,3R,4S,5S)-5-(4-(benzylamino)-2-chloroquinazolin-7-yl)-4-fluoro-3-hydroxytetrahydrofuran-2-yl)methoxy)(hydroxy)phosphoryl)methyl)phosphonic acid], the values for the IC50 in assay [1] and in assay [2] were 100 to 999 nM and 10 to 99 nM, respectively.

For the compound `C[C@@]1(O)[C@H](O)[C@@H](COP(=O)(O)CP(=O)(O)O)O[C@H]1c1ccc2c(NCc3ccccc3)nc(Cl)nc2c1` [Compound 34, (((((2R,3R,4R,5S)-5-(4-(benzylamino)-2-chloroquinazolin-7-yl)-3,4-dihydroxy-4-methyltetrahydrofuran-2-yl)methoxy)(hydroxy)phosphoryl)methyl)phosphonic acid], in assay [1], the IC50 was > 1000 nM.

Regarding `O=P(O)(O)CP(=O)(O)OC[C@H]1O[C@@H](c2cccc3c(NCc4ccccc4)nc(Cl)nc23)[C@H](O)[C@@H]1O` [Compound 32, (((((2R,3S,4R,5S)-5-(4-(benzylamino)-2-chloroquinazolin-8-yl)-3,4-dihydroxytetrahydrofuran-2-yl)methoxy)(hydroxy)phosphoryl)methyl)phosphonic acid], in assay [1], the IC50 was in the range of 100 to 999 nM.

For `O=P(O)(O)CP(=O)(O)OC[C@H]1O[C@H](c2ccc3c(NCc4ccccc4)nc(Cl)nc3c2)[C@@H](F)[C@@H]1O` [Compound 14, [({[(2R,3R,4S, 5R)-5-[4-(benzylamino)-2-chloroquinazolin-7-yl]-4-fluoro-3-hydroxyoxolan-2-yl]methoxy}(hydroxy)phosphoryl)methyl]phosphonic acid], the IC50 in assay [1] is > 1000 nM.

In the case of `O=P(O)(O)CP(=O)(O)OC[C@H]1O[C@@H](c2ccc3c(NCC4CC(O)C4)nc(Cl)nc3c2)[C@H](O)[C@@H]1O` (stereo partly drawn) [Compound 44, (((((2R,3S,4R,5S)-5-(2-chloro-4-(((3-hydroxycyclobutyl)methyl)amino)quinazolin-7-yl)-3,4-dihydroxytetrahydrofuran-2-yl)methoxy)(hydroxy)phosphoryl)methyl)phosphonic acid], the IC50 in assay [1] was in the range of 10 to 99 nM.

`CCc1nc(NCc2ccccc2)c2ccc([C@@H]3O[C@H](COP(=O)(O)CP(=O)(O)O)[C@@H](O)[C@H]3O)cc2n1` [Compound 20, [({[(2R,3S,4R,5S)-5-[4-(benzylamino)-2-ethylquinazolin-7-yl]-3,4-dihydroxyoxolan-2-yl]methoxy}(hydroxy)phosphoryl)methyl]phosphonic acid]: the IC50 in assay [1] is 100 to 999 nM.

Take `O=P(O)(O)CP(=O)(O)OC[C@H]1O[C@@H](c2ccc3c(NCC4CCC(O)CC4)nc(Cl)nc3c2)[C@H](O)[C@@H]1O` (stereo partly drawn) [Compound 42, (((((2R,3S,4R,5S)-5-(2-chloro-4-(((4-hydroxycyclohexyl)methyl)amino)quinazolin-7-yl)-3,4-dihydroxytetrahydrofuran-2-yl)methoxy)(hydroxy)phosphoryl)methyl)phosphonic acid]: the IC50 in assay [1] lay in the range of 10 to 99 nM.

In the case of `O=P(O)(O)CP(=O)(O)OC[C@H]1O[C@@H](c2cc3nc(Cl)nc(NCc4ccccc4)c3cc2F)[C@H](O)[C@@H]1O` [Compound 19, (((((2R,3S,4R,5S)-5-(4-(benzylamino)-2-chloro-6-fluoroquinazolin-7-yl)-3,4-dihydroxytetrahydrofuran-2-yl)methoxy)(hydroxy)phosphoryl)methyl)phosphonic acid], in assay [1], the IC50 fell in the range of 100 to 999 nM.

As a reminder, the IC50 is the concentration at which inhibition is half-maximal.

Values taken from patent US20220185832A1, “CD73 INHIBITORS” (BioArdis LLC, priority 2019, published 2022).
